In patent publication US20060222595A1, “Nanoparticles for therapeutic and diagnostic applications” (priority 2005, published 2006):

Experiment: Saturation concentration of agents on gold nanoparticles (UV-Visible absorbance)
Type: physicochemical
Procedure: The individual saturation concentrations of a monoclonal anti-VEGF antibody agent and a gemcitabine agent to gold nanoparticles were determined in the following manner. Eight tubes containing 1 ml of gold nanoparticles each were incubated with increasing concentrations of the anti-VEGF antibody for 30 minutes, followed by an aggregation assay involving incubation with 100 μl of a 10% NaCl solution. Approximately 15 min. after the addition of the NaCl solution, the UV-Visible spectra were recorded using a Shimadzu model system (UV2401 PC), and the saturation concentration of the antibody was determined.
The attachment of gemcitabine to the gold nanoparticles and the determination of its saturation concentration were performed similarly.
The saturation concentration of gemcitabine on the gold nanoparticles was determined in a similar manner. Gold nanoparticles were incubated with different concentrations of gemcitabine for 30 min., and their UV-Visible spectra were recorded. […] This shift in Ymax value with a concomitant decrease in absorbance and a broadening of the spectra may be attributed to the aggregation of gold nanoparticles upon the addition of gemcitabine beyond the 20 μg limit. […]

saturation concentration of gemcitabine on gold nanoparticles (absorbance maximum) (30 min incubation, UV-Visible spectra) [µg]	saturation concentration of dopamine on gold nanoparticles (surface plasmon resonance band, UV-visible spectroscopy) [µg/mL]	Compound
20		Nc1ccn([C@@H]2O[C@H](CO)[C@@H](O)C2(F)F)c(=O)n1 [gemcitabine]
	~30	NCCc1ccc(O)c(O)c1 [dopamine]
